The source of these data is patent US9765105B2, “Macrolide compound” (Pulike Biological Engineering, Inc., priority 2013, dated 2017).

Series [1] is described as follows: acute oral toxicity test, LD50 by improved karber method. The settings on record: for LD50 at 7 days: both, Konmin, mouse, in vivo, po.
Series [2] has as its system Streptococcus pneumoniae CMCC 31203. In words: in vivo antibacterial test, survival of infected mice. Also on record: species or system BALB/c mice. The settings on record: mice infected i.p. with Streptococcus pneumoniae; 5 mg per kg subcutaneous for 3 consecutive days; observed until the seventh day.
For series [3], the system named is Staphylococcus aureus CVCC26003. Description: in vitro susceptibility, MIC by mini broth dilution. The settings on record: strain CVCC26003. The class given is cell-based. Summed up:
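MICs were determined by mini broth dilution under NCCLS standards in CAMHB, using revived S. aureus CVCC26003 subcultured 20 h at 35° C. Compounds were two-fold serially diluted in DMSO across 11 wells, with duplicate rows. Bacterial suspension was diluted 1:200 in medium before inoculation.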
On the technique in general: In broth dilution the organism is exposed to a series of concentrations in liquid medium.

In series [4] the test system is Streptococcus equines CVCC556. The description is as above. The class given is cell-based. As to conditions: strain CVCC556. Summed up: (§1)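 MICs determined by mini broth dilution per NCCLS (now CLSI) standards. Strains revived from −20° C, subcultured twice on solid medium at 35° C for 20 h; compounds two-fold serially diluted in DMSO over 11 gradients, duplicate rows, bacterial suspension diluted 1:200 in liquid medium.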

Series [5] deals with Pasteurella multocida CVCC399. The series is described as above. The class given is cell-based. The settings on record: strain CVCC399. Summed up:
as §1

For series [6], the system named is Actinobacillus pleuropneumoniae CVCC262. The description is as above. The settings on record: strain CVCC262. The class given is cell-based. Summed up: as §1
For the next series, the system named is Haemophilus parasuis. Described as above. The class given is cell-based. Summed up: as §1

Each structure is given as a SMILES string.

As usually defined, the LD50 is the dose expected to kill half of the subjects tested. In series [1], `CC[C@@H]1OC(=O)[C@H](C)[C@H](OC2C[C@@](C)(OC)[C@](O)(CN3CCOCC3)[C@H](C)O2)[C@@H](C)[C@@H](O[C@@H]2O[C@H](C)C[C@H](N(C)C)[C@H]2O)[C@](C)(O)C[C@@H](C)NC[C@@H](C)[C@H](O)[C@]1(C)O` (stereo partly drawn) [syzx-5, (2R,3S,4R,5S,8R,10R,11R,12S,13S,14R)-13-[(2,6-dideoxy-3-C-methyl-3-O-methyl-4-C-[(morpholinyl)methyl]-α-L-ribopyranosyl)oxy]-2-ethyl-3,4,10-trihydroxy-3,5,8,10,12,14-hexamethyl-11-[[3,4,6-trideoxy-3-(dimethylamino)-β-D-xylo-hexopyranosy]oxy]-1-oxa-7-azacyclopentadecan-15-one] displayed an LD50 at 7 days of 2730 mg/kg. The “Animal survival rate (surviving/total animals)” value in series [2] is recorded as 7/10.
With `CC[C@@H]1OC(=O)[C@H](C)[C@H](OC2C[C@@](C)(OC)[C@](O)(CNCC3CCCCC3)[C@H](C)O2)[C@@H](C)[C@@H](O[C@@H]2O[C@H](C)C[C@H](N(C)C)[C@H]2O)[C@](C)(O)C[C@@H](C)NC[C@@H](C)[C@H](O)[C@]1(C)O` (stereo partly shown) [syzx-67], the “Animal survival rate (surviving/total animals)” value in series [2] was 8/10.
On to `CC[C@@H]1OC(=O)[C@H](C)[C@H](OC2C[C@@](C)(OC)[C@](O)(CN(CC)CC)[C@H](C)O2)[C@@H](C)[C@@H](O[C@@H]2O[C@H](C)C[C@H](N(C)C)[C@H]2O)[C@](C)(O)C[C@@H](C)NC[C@@H](C)[C@H](O)[C@]1(C)O` (stereo partly drawn) [syzx-3, (2R,3S,4R,5S,8R,10R,11R,12S,13S,14R)-13-[(2,6-dideoxy-3-C-methyl-3-O-methyl-4-C-[(diethylamino)methyl]-α-L-ribopyranosyl)oxy]-2-ethyl-3,4,10-trihydroxy-3,5,8,10,12,14-hexamethyl-11-[[3,4,6-trideoxy-3-(dimethylamino)-β-D-xylo-hexopyranosy]oxy]-1-oxa-7-azacyclopentadecan-15-one], for which the LD50 at 7 days in series [1] is 2490 mg/kg. Also, the “Animal survival rate (surviving/total animals)” value in series [2] was 8/10.
The compound `CC[C@@H]1OC(=O)[C@H](C)[C@H](OC2C[C@@](C)(OC)[C@](O)(CNC3CC3)[C@H](C)O2)[C@@H](C)[C@@H](O[C@@H]2O[C@H](C)C[C@H](N(C)C)[C@H]2O)[C@](C)(O)C[C@@H](C)NC[C@@H](C)[C@H](O)[C@]1(C)O` (stereo partly drawn) [syzx-6, (2R,3S,4R,5S,8R,10R,11R,12S,13S,14R)-13-[(2,6-dideoxy-3-C-methyl-3-O-methyl-4-C-[(cyclopropylamino)methyl]-α-L-ribopyranosyl)oxy]-2-ethyl-3,4,10-trihydroxy-3,5,8,10,12,14-hexamethyl-11-[[3,4,6-trideoxy-3-(dimethylamino)-β-D-xylo-hexopyranosy]oxy]-1-oxa-7-azacyclopentadecan-15-one] displayed an LD50 at 7 days in series [1] of 2610 mg/kg. Further, the “Animal survival rate (surviving/total animals)” value in series [2] is reported as 8/10.
Regarding `CC[C@@H]1OC(=O)[C@H](C)[C@H](OC2C[C@@](C)(OC)[C@](O)(CNCc3cccc(OC)c3)[C@H](C)O2)[C@@H](C)[C@@H](O[C@@H]2O[C@H](C)C[C@H](N(C)C)[C@H]2O)[C@](C)(O)C[C@@H](C)NC[C@@H](C)[C@H](O)[C@]1(C)O` (stereo partly drawn) [syzx-35, (2R,3S,4R,5S,8R,10R,11R,12S,13S,14R)-13-[(2,6-dideoxy-3-C-methyl-3-O-methyl-4-C-[[3-methoxybenzyl-amino]-methyl]-α-L-ribopyranosyl)oxy]-2-ethyl-3,4,10-trihydroxy-3,5,8,10,12,14-hexamethyl-11-[[3,4,6-trideoxy-3-(dimethylamino)-β-D-xylo-hexopyranosy]oxy]-1-oxa-7-azacyclopentadecan-15-one], in series [2], the Animal survival rate was 70% and the “Animal survival rate (surviving/total animals)” value was 7/10.
Consider `CC[C@@H]1OC(=O)[C@H](C)[C@H](OC2C[C@@](C)(OC)[C@](O)(CN3CCCCC3)[C@H](C)O2)[C@@H](C)[C@@H](O[C@@H]2O[C@H](C)C[C@H](N(C)C)[C@H]2O)[C@](C)(O)C[C@@H](C)NC[C@@H](C)[C@H](O)[C@]1(C)O` (stereo partly drawn) [syzx-15, (2R,3S,4R,5S,8R,10R,11R,12S,13S,14R)-13-[(2,6-dideoxy-3-C-methyl-3-O-methyl-4-C-[piperidinylmethyl]-α-L-ribopyranosyl)oxy]-2-ethyl-3,4,10-trihydroxy-3,5,8,10,12,14-hexamethyl-11-[[3,4,6-trideoxy-3-(dimethylamino)-β-D-xylo-hexopyranosy]oxy]-1-oxa-7-azacyclopentadecan-15-one], for which the LD50 at 7 days in series [1] was found to be 2660 mg/kg. Besides, in series [2], the “Animal survival rate (surviving/total animals)” value was 8/10.
For the compound `CCCN1C[C@H](C)[C@@H](O)[C@](C)(O)[C@@H](CC)OC(=O)[C@H](C)[C@@H](O[C@H]2C[C@@](C)(OC)[C@@H](O)[C@H](C)O2)[C@H](C)[C@@H](O[C@@H]2O[C@H](C)C[C@H](N(C)C)[C@H]2O)[C@](C)(O)C[C@H]1C` [Gamithromycin, reference compound], the LD50 in series [1] (per os, gavaged once, in 0.2% sodium carboxymethylcellulose, observed 7 days) was 2165.2 mg/kg. In addition, the “MIC values, Staphylococcus aureus CVCC26003” value in series [3] was 0.25 ug/mi. Moreover, the “MIC values, Streptococcus equines CVCC556” value in series [4] came to 0.5 ug/mi. Besides, the “MIC values, Pasteurella multocida CVCC399” value in series [5] is given as 0.25 ug/mi. Also, in series [6], the “MIC values, Actinobacillus pleuropneumoniae CVCC262” value came out at 0.25 ug/mi. Besides, in the series with Haemophilus parasuis, the “MIC values, Haemophilus parasuis” value was 0.25 ug/mi.
Consider `CCCCCNC[C@]1(O)[C@H](C)OC(O[C@@H]2[C@@H](C)[C@@H](O[C@@H]3O[C@H](C)C[C@H](N(C)C)[C@H]3O)[C@](C)(O)C[C@@H](C)NC[C@@H](C)[C@H](O)[C@](C)(O)[C@H](CC)OC(=O)[C@@H]2C)C[C@@]1(C)OC` (stereo partly drawn) [syzx-47, (2R,3S,4R,5S,8R,10R,11R,12S,13S,14R)-13-[(2,6-dideoxy-3-C-methyl-3-O-methyl-4-C-[[n-pentyl-amino]-methyl]-α-L-ribopyranosyl)oxy]-2-ethyl-3,4,10-trihydroxy-3,5,8,10,12,14-hexamethyl-11-[[3,4,6-trideoxy-3-(dimethylamino)-β-D-xylo-hexopyranosy]oxy]-1-oxa-7-azacyclopentadecan-15-one], for which, in series [2], the “Animal survival rate (surviving/total animals)” value was 9/10.
As to `CC[C@@H]1OC(=O)[C@H](C)[C@H](OC2C[C@@](C)(OC)[C@](O)(CNC3CCCC3)[C@H](C)O2)[C@@H](C)[C@@H](O[C@@H]2O[C@H](C)C[C@H](N(C)C)[C@H]2O)[C@](C)(O)C[C@@H](C)NC[C@@H](C)[C@H](O)[C@]1(C)O` (stereo partly drawn) [syzx-30, (2R,3S,4R,5S,8R,10R,11R,12S,13S,14R)-13-[(2,6-dideoxy-3-C-methyl-3-O-methyl-4-C-[(cyclopentylamino)-methyl]-α-L-ribopyranosyl)oxy]-2-ethyl-3,4,10-trihydroxy-3,5,8,10,12,14-hexamethyl-11-[[3,4,6-trideoxy-3-(dimethylamino)-β-D-xylo-hexopyranosy]oxy]-1-oxa-7-azacyclopentadecan-15-one], in series [2], the “Animal survival rate (surviving/total animals)” value is recorded as 8/10.
On to `CC[C@@H]1OC(=O)[C@H](C)[C@H](OC2C[C@@](C)(OC)[C@](O)(CNCc3cnc(C)cn3)[C@H](C)O2)[C@@H](C)[C@@H](O[C@@H]2O[C@H](C)C[C@H](N(C)C)[C@H]2O)[C@](C)(O)C[C@@H](C)NC[C@@H](C)[C@H](O)[C@]1(C)O` (stereo partly drawn) [syzx-65, (2R,3S,4R,5S,8R,10R,11R,12S,13S,14R)-13-[(2,6-dideoxy-3-C-methyl-3-O-methyl-4-C-{[(5-methyl-pyrazin-2-yl-methyl)-amino]-methyl}-α-L-ribopyranosyl)oxy]-2-ethyl-3,4,10-trihydroxy-3,5,8,10,12,14-hexamethyl-11-[[3,4,6-trideoxy-3-(dimethylamino)-β-D-xylo-hexopyranosy]oxy]-1-oxa-7-azacyclopentadecan-15-one], for which, in series [2], the “Animal survival rate (surviving/total animals)” value is listed as 9/10.
On the same count and under the same terms, the result for `CC[C@@H]1OC(=O)[C@H](C)[C@H](OC2C[C@@](C)(OC)[C@](O)(CNCCCOC)[C@H](C)O2)[C@@H](C)[C@@H](O[C@@H]2O[C@H](C)C[C@H](N(C)C)[C@H]2O)[C@](C)(O)C[C@@H](C)NC[C@@H](C)[C@H](O)[C@]1(C)O` (stereo partly shown) [syzx-66] reads 8/10.
Take `CCCN1C[C@H](C)[C@@H](O)[C@](C)(O)[C@@H](CC)OC(=O)[C@H](C)[C@@H](O[C@H]2C[C@@](C)(OC)[C@](O)(CNCC3CC3)[C@H](C)O2)[C@H](C)[C@@H](O[C@@H]2O[C@H](C)C[C@H](N(C)C)[C@H]2O)[C@](C)(O)C[C@H]1C` [syzx-117]: in series [3], the “MIC values, Staphylococcus aureus CVCC26003” value was determined as 0.25 ug/mi. Further, the “MIC values, Streptococcus equines CVCC556” value in series [4] is given as 0.25 ug/mi. Further, in series [5], the “MIC values, Pasteurella multocida CVCC399” value is 0.5 ug/mi. Besides, in series [6], the “MIC values, Actinobacillus pleuropneumoniae CVCC262” value was determined as 0.25 ug/mi. For the same compound, the “MIC values, Haemophilus parasuis” value with Haemophilus parasuis came out at 0.25 ug/mi.
For the compound `CC[C@H]1OC(=O)[C@H](C)[C@@H](O[C@H]2C[C@@](C)(OC)[C@](O)(CNCc3ccccc3OC)[C@H](C)O2)[C@H](C)[C@@H](O[C@@H]2O[C@H](C)C[C@H](N(C)C)[C@H]2O)[C@](C)(O)C[C@@H](C)NC[C@H](C)[C@@H](O)[C@]1(C)O` [syzx-27], in series [3], the “MIC values, Staphylococcus aureus CVCC26003” value is 0.5 ug/mi. Moreover, the “MIC values, Streptococcus equines CVCC556” value in series [4] is listed as “≦0.25 ug/mi”. Besides, the “MIC values, Pasteurella multocida CVCC399” value in series [5] was 0.5 ug/mi. The “MIC values, Actinobacillus pleuropneumoniae CVCC262” value in series [6] is given as 4 ug/mi. Also, the “MIC values, Haemophilus parasuis” value in the series with Haemophilus parasuis is “≦0.25 ug/mi”.
